{
  "source": "patent US20040142899A1",
  "about": "“Compositions and methods for enhanced biostability and altered biodistribution of oligonucleotides in mammals” (ISIS Pharmaceuticals, Inc., priority 1990, published 2004)",
  "key": {"[1]": {"assay": "Nuclease stability in HeLa cytoplasmic/nuclear extracts", "format": "in vitro ADME", "settings": "cell extract diluted 1.4 times; oligonucleotide 20 μM", "experimental": "The nuclease stability of Oligomer 51 and the conjugate were tested against Oligomer 50 in HeLa cytoplasmic/nuclear extracts. The cell extract was diluted 1.4 times. The final concentration of oligonucleotide was 20 μM. The half lives of the oligonucleotides were as follows: Oligomer 50, 1.0 hrs.; Oligomer 51, 3.5 hrs.; and Conjugate 1, 3.6 hrs."}, "mouse ICAM-1 mRNA": {"test_system": "mouse ICAM-1 mRNA", "assay": "ICAM-1 mRNA levels in LPS-treated mice (Northern analysis)", "format": "in vivo", "settings": "liver; 30 mg/kg i.v. 24 and 2 hours prior to LPS", "experimental": "Mice were treated with oligonucleotides and examined as follows. […] Then, to induce ICAM-1 expression, bacterial lipopolysaccharide (LPS) was injected into the mice. After 2 hours, the mice were sacrificed, and particular organs, or specific portion thereof, were removed for further study. RNA was prepared from isolated, homogenized tissues essentially according to the guanidinium/CsCl purification method of Chirgwin et al. (Biochemistry, […], 18, 5294), electrophoresed and transferred to nylon membranes for hybridization studies (Northern analysis) according to methods well known in the art. In order to detect mouse ICAM-1 mRNA, a radiolabelled probe was prepared by random oligonucleotide-primed synthesis using a mouse ICAM-1 clone as a template. The blots were stripped and reprobed with a ^32P-labeled glyceraldehyde 3-phosphate dehydrogenase (G3PDH) probe (Clontech Laboratories, Inc., Palo Alto, Calif.) in order to confirm equal loading of RNA and to allow the levels of ICAM-1 transcripts to be normalized with regard to the G3PDH signals. Hybridizing bands were visualized by exposure to X-OMAT AR film and quantitated using a PHOSPHORIMAGER™ essentially according to the manufacturer's instructions (Molecular Dynamics, Sunnyvale, Calif.)."}, "ICAM-1 protein": {"test_system": "ICAM-1 protein", "settings": "LPS-induced livers, HRP-conjugated secondary antibodies"}, "complementary DNA": {"test_system": "complementary DNA", "assay": "Melting analysis (Tm) of 5-LO antisense sequence oligomers against complementary DNA", "format": "binding", "settings": "4 μM each strand, 100 mM NaCl, 10 mM Phosphate, 0.1 mM EDTA, pH 7.0", "experimental": "(§1) The relative ability of oligonucleotides to bind to their complementary strand is compared by determining the melting temperature of the hybridization complex of the oligonucleotide and its complementary strand. The melting temperature (Tm), a characteristic physical property of double helices, denotes the temperature in degrees centigrade at which 50% helical versus coil (un-hybridized) forms are present. Tm is measured by using the UV spectrum to determine the formation and breakdown (melting) of hybridization. Base stacking, which occurs during hybridization, is accompanied by a reduction in UV absorption (hypochromicity). Consequently, […]. The higher the Tm, the greater the strength of the binding of the strands. Non-Watson-Crick base pairing has a strong destabilizing effect on the Tm. Consequently, absolute fidelity of base pairing is necessary to have optimal binding of an antisense oligonucleotide to its targeted RNA.\n(§2) The test oligonucleotides (either the phosphodiester, phosphorothioate, cholic acid conjugated phosphodiester, cholic acid conjugated phosphorothioate or 5′-aminolink intermediate phosphodiester or phosphorothioate oligonucleotides of the invention or otherwise) and either the complementary DNA or RNA oligonucleotides were incubated at a standard concentration of 4 μM for each oligonucleotide in buffer (100 mM NaCl, 10 mM Na-phosphate, pH 7.0, 0.1 mM EDTA). Samples were heated to 90 degrees C. and the initial absorbance taken using a Guilford Response II spectro-photometer (Corning, Inc., Corning, N.Y.). Samples were then slowly cooled to 15° C. and then the change in absorbance at 260 nm was monitored during the heat denaturation procedure. The temperature was elevated 1 degree/absorbance reading and the denaturation profile analyzed by taking the 1st derivative of the melting curve. Data was also analyzed using a two-state linear regression analysis to determine the Tm's. The results of these tests are shown in Table 3 as are the HPLC retention times of certain of the test compounds."}, "complementary RNA": {"test_system": "complementary RNA", "assay": "Melting analysis (Tm) of 5-LO antisense sequence oligomers against complementary RNA", "format": "binding", "settings": "4 μM each strand, 100 mM NaCl, 10 mM Phosphate, 0.1 mM EDTA, pH 7.0", "experimental": "as §1, §2"}, "P-glycoprotein": {"test_system": "P-glycoprotein", "assay": "P-glycoprotein expression by Western blotting in MDR 3T3 cells", "format": "cell-based, human", "settings": "maximum only after 72 hours exposure", "experimental": "Transfected MDR NIH 3T3 cells were grown and treated with oligonucleotides as described in Example (9)(B). In order to measure P-glycoprotein expression by Western blotting, cells were seeded in 60 mm dishes at 1.2×10^6 per dish and incubated for 24 hours in serum containing medium. The cells were treated with the oligomers for various times in serum free medium as described above. Cells were then extracted in lysis buffer (20 mM Tris, pH 7.5, 2 mM EDTA, 500 mM EGTA, 2 mM PMSF, 1 mM DTT, aprotonin (10 ug/ml), 0.5% Triton-X) and sonicated briefly. The lysate was spun in a microfuge tube for 20 minutes at 4° C. and the resulting supernatant was checked for protein content. Equal amounts of protein (usually 20 ug) were mixed with SDS sample buffer and boiled. Protein samples were separated by 8% SDS PAGE and the resolved proteins were electrophoretically transferred onto polyvinyllidene fluoride membranes (Millipore, Bedford, Mass.). The membranes were blocked (with 3% BSA, 2% non fat dry milk in PBS) and then treated with 2 ug/ml C219 anti-P-glycoprotein antibody (Signet, Dedham, Mass.). After washing three times with 0.1% Tween 20, the membranes were incubated with rabbit anti-mouse antibody (Cappel, Durham, N.C.). Immunoreactive proteins were visualized either by ECL (Enhanced Chemiluminescence, Amersham, Arlington Heights, Ill.) or with ^125I secondary antibodies."}, "MDR1 mRNA": {"test_system": "MDR1 mRNA", "assay": "MDR1 mRNA expression by Northern blotting in MDR 3T3 cells", "format": "cell-based, human", "settings": "for MDR1 mRNA Level (arbitrary units) / % Control (MDR1 mRNA): oligonucleotide 1 μm, 24 hours, with Lipofectin; for MDR1 mRNA Level (arbitrary units): serum free medium; for % Control (MDR1 mRNA): control = untreated cells", "experimental": "NIH 3T3 cells transfected with a plasmid containing the human MDR1 gene (pSK1 MDR) have been previously described (Kane et al., Gene, 1989, 84, 439). These cells have proven to be useful models for the study of multi-drug resistance phenomena. Cells were grown in DMEM media containing 10% fetal bovine serum (FBS) and 60 ng/ml colchicine in an atmosphere of 95% air, 5% CO2.\nCells were grown in […] flasks.\nTo measure MDR1 mRNA expression by Northern blotting, total cellular RNA was isolated by lysis in 4M guanidium isothiocyanate followed by a cesium chloride gradient, and the RNA was resolved on 1.2% agarose gels containing 1.2% formaldehyde and transferred to nitrocellulose membranes (Dean et al., J. Biol. Chem., 1994, 269, 16416). The blots were hybridized with a ^32P radiolabeled human MDR1 cDNA probe. The MDR1 cDNA probe was isolated by performing a polymerase chain reaction on the pSK1 MDR plasmid, as described previously (Alahari et al., Nucl. Acids Res., 1993, 21, 4079). The following oligonucleotide primers were used for PCR: […]\nThe resulting fragment was checked on an agarose gel and was radiolabeled with ^32P-dCTP using a commercially available random primer labeling kit (Amersham, Arlington Heights, Ill.) according to the manufacturer's instructions. The filters were hybridized overnight in hybridization buffer (25 mM KPO4, pH 7.4; 5×SSC; 5×Denhardt's solution, 100 ug/ml Salmon sperm DNA and 50% formamide) (Alahari et al., Nucl. Acids Res., 1993, 21, 4079). This was followed by two washes with 1×SSC, 0.1% SDS and two washes with 0.25×SSC, 0.1% SDS. Hybridizing bands were visualized by exposure to X-OMAT AR film and quantitated using a PhosphorImager™ (Molecular Dynamics, Sunnyvale, Calif.). To confirm equal loading of RNA, the blots were stripped and reprobed with a ^32P-labeled beta-actin probe (Clontech, Palo Alto, Calif).\nIn initial experiments, the MDR 3T3 cells were exposed to 1.0 μm concentrations of several different antisense oligonucleotides, or control oligonucleotides, in the presence of 20 ug/ml LIPOFECTIN® for 24 hours. […] NIH 3T3 cells transfected with pSK1 MDR plasmid were grown to 90% confluence and treated with oligonucleotide (1 μm) for 24 hours in the presence of Lipofectin® in serum free medium. Total RNA was isolated and fractionated on agarose formaldehyde gels and blotted onto nitrocellulose membranes. These membranes were probed with a ^32P radiolabeled 1.0 kb MDR1 cDNA, and then stripped and reprobed with a ^32P radiolabeled beta-actin cDNA probe to confirm equal loading of RNA, allowing the levels of MDR1 transcripts to be normalized with regard to the beta-actin bands. Transcript levels were quantitated using a PHOSPHORIMAGER™ (Molecular Dynamics, Sunnyvale, Calif.); the values are expressed in arbitrary units (the beta-actin transcripts were essentially constant)."}},
  "data": [
    {"substance": "5′-GCC-TTT-CGC-GAC-CCA-ACA-CU [Oligomer 50, reference compound]", "values": [
      {"measurement": "half life", "setting": "[1]", "result": 1.0, "unit": "h"}
    ]},
    {"substance": "5′-GCC-TTT-CGC-GAC-CCA-ACA-CU* [Oligomer 51]", "values": [
      {"measurement": "half life", "setting": "[1]", "result": 3.5, "unit": "h"}
    ]},
    {"substance": "5′-GCG-TTG-CTC-TTC-TTC-TTG-CG [ISIS 13293, reference compound]", "values": [
      {"measurement": "reduction of hepatic ICAM-1 mRNA relative to LPS without oligonucleotide", "setting": "mouse ICAM-1 mRNA", "result": "no apparent effect"},
      {"measurement": "ICAM-1 staining of liver sections", "setting": "ICAM-1 protein", "result": "appear quite dark"}
    ]},
    {"substance": "5′-TCC-AGG-TGT-CCG-CAT-C-3′ (antisense TCCAGGTGTCCGCATC; 5' cholic acid conjugate, chemistry not fully specified) [Oligomer 36, 5′-terminus cholic acid conjugate, phosphodiester]", "values": [
      {"measurement": "Tm DNA", "setting": "complementary DNA", "result": 63.4, "unit": "degrees centigrade"},
      {"measurement": "Tm RNA", "setting": "complementary RNA", "result": 62.4, "unit": "degrees centigrade"}
    ]},
    {"substance": "5′-TCC-AGG-TGT-CCG-CAT-C-3′ (antisense TCCAGGTGTCCGCATC; phosphodiester, phosphorothioate or 5'-aminolink variants, which one is not given here, further chemistry not given here) [Oligomer 32, parent 5-LO antisense compound, normal phosphodiester linkages, reference compound]", "values": [
      {"measurement": "Tm DNA", "setting": "complementary DNA; listed as 32", "result": 62.6, "unit": "degrees centigrade"},
      {"measurement": "Tm RNA", "setting": "complementary RNA; listed as 32", "result": 62.0, "unit": "degrees centigrade"}
    ]},
    {"substance": "5′-TCC-AGG-TGT-CCG-CAT-C-3′ (antisense TCCAGGTGTCCGCATC; phosphodiester, phosphorothioate or 5'-aminolink variants, which one is not given here, further chemistry not given here) [Oligomer 33, reference compound]", "values": [
      {"measurement": "Tm DNA", "setting": "complementary DNA; listed as 33", "result": 55.4, "unit": "degrees centigrade"},
      {"measurement": "Tm RNA", "setting": "complementary RNA; listed as 33", "result": 54.9, "unit": "degrees centigrade"}
    ]},
    {"substance": "5′-TCC-AGG-TGT-CCG-CAT-C-3′ (antisense TCCAGGTGTCCGCATC; phosphodiester, phosphorothioate or 5'-aminolink variants, which one is not given here, further chemistry not given here) [Oligomer 37]", "values": [
      {"measurement": "Tm DNA", "setting": "complementary DNA; listed as 37", "result": 56.3, "unit": "degrees centigrade"},
      {"measurement": "Tm RNA", "setting": "complementary RNA; listed as 37", "result": 55.8, "unit": "degrees centigrade"}
    ]},
    {"substance": "CGG-TCC-CCT-TCA-AGA-TCC-AT (CGGTCCCCTTCAAGATCCAT; all phosphorothioate, sugars by position and methylation of C not given here) [ISIS 10440]", "values": [
      {"measurement": "reduction of P-glycoprotein (Western assays)", "setting": "P-glycoprotein", "result": "about 50%"}
    ]},
    {"substance": "CTC-CCG-CAC-ATC-TCC-GCG-CC (CTCCCGCACATCTCCGCGCC; all phosphorothioate, sugars by position and methylation of C not given here) [ISIS 10222, reference compound]", "values": [
      {"measurement": "MDR1 mRNA Level (arbitrary units)", "setting": "MDR1 mRNA", "result": "406,522 arbitrary units"},
      {"measurement": "% Control (MDR1 mRNA)", "setting": "MDR1 mRNA", "result": 86, "unit": "%"}
    ]},
    {"substance": "GAG-CCG-CTA-CTC-GAA-TGA-GC (GAGCCGCTACTCGAATGAGC; all phosphorothioate, sugars by position and methylation of C not given here) [ISIS 5990]", "values": [
      {"measurement": "MDR1 mRNA Level (arbitrary units)", "setting": "MDR1 mRNA", "result": "443,478 arbitrary units"},
      {"measurement": "% Control (MDR1 mRNA)", "setting": "MDR1 mRNA", "result": 94, "unit": "%"}
    ]},
    {"substance": "GTT-CAC-TGG-CGC-TTT-GTT-CC (GTTCACTGGCGCTTTGTTCC; all phosphorothioate, sugars by position and methylation of C not given here) [ISIS 5998]", "values": [
      {"measurement": "effect on MDR1 mRNA expression", "setting": "MDR1 mRNA; parent phosphorothioate, Example 9(B)", "result": "unpromising effect on MDR1 mRNA expression"}
    ]}
  ]
}
